Source: PubChem BioAssay AID624258 (Broad Institute, 2012)
Calls of active or inactive are those of the source. How the calls were made is not given here.

Test: SKN7 mediated toxicity in Saccharomyces cerevisiae, growth rescue counterscreen, dose confirmation (AID 624258);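 further: growth read after three days of incubation at 30 °C; 0% = median of neutral control wells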
Details: S. cerevisiae SKN7-toxicity growth rescue, plate reader

SMILES	growth rescue activity (at 19.5 µM (top of the series))	growth rescue activity (at 6.8 µM (top of the series))
CCOC(=O)C1=C(C)NC(=O)C1CC(=O)O (stereo not drawn)	-16.2% (inactive)	
C=CCNC(=S)N1CCC(Cc2ccccc2)CC1	-41% (inactive)	
Oc1ccc(Br)cc1/C=N/Nc1ccccn1	-73.9% (inactive)	
COCCn1c(=NC(=O)CSC(C)=O)sc2cc(F)ccc21	56.5% (inactive)	
CCOC(=O)c1ccc(N2C(=O)CC(N3CCC(O)(c4ccc(Cl)cc4)CC3)C2=O)cc1 (stereo not drawn)	-16.1% (inactive)	
Oc1c(Cl)c(Cl)c(Cl)c(Cl)c1Cl	-82.9% (inactive)	
O=C(Nc1ccc(Cl)cc1C(=O)Nc1ccc(Br)cn1)c1ccco1	-90.7% (inactive)	
O=c1c(O)c(-c2ccccc2)oc2ccccc12	-14.5% (inactive)	
Cc1nc2ccc(NC(=O)Cc3ccc4c(c3)OCCO4)cc2s1	28.8% (inactive)	
Cn1c(SCC(=O)N2c3ccccc3Sc3ccc(Cl)cc32)nnc1-c1ccco1	-51.2% (inactive)	
CC(=O)Oc1ccc(OC(C)=O)c(SCCCCCCl)c1	-46.3% (inactive)	
c1cnc2c(c1)ccc1cccnc12	-64% (inactive)	
COc1ccc(OCC(=O)NNC(=S)NC(=O)C2CCCCC2)cc1	-64.8% (inactive)	
CC(=O)Oc1ccc(N2C(=O)C3C4C=CC(O4)C3C2=O)cc1 (stereo not drawn)	16.1% (inactive)	
CCn1c(-c2cc(-c3ccc(C)cc3)nc3ccccc23)n[nH]c1=S	-24.4% (inactive)	
O=C(NCCCNc1ccc(C(F)(F)F)cc1[N+](=O)[O-])c1ccc(Cl)cc1	-14.8% (inactive)	
CC(=O)Nc1cccc(-c2cc(-c3c(Cl)cccc3Cl)no2)c1	-92.6% (inactive)	
O=CC1=C(c2ccccc2)Oc2ccccc2O1	-88.1% (inactive)	
CC(C)(C)C(=O)N1CCN(c2ccc([N+](=O)[O-])cc2Cl)CC1		-14.7% (inactive)

SMILES	growth rescue activity (at 19.5 µM (top of the series))	growth rescue activity (at 6.8 µM (top of the series))
COc1cccc2c1C(=O)c1c(O)c3c(c(O)c1C2=O)C[C@@](O)(C(C)=O)C[C@@H]3O[C@H]1C[C@H](N)[C@H](O)[C@H](C)O1	23.7% (inactive)	
O=[N+]([O-])c1ccc2c(c1)Cc1cc(O)ccc1-2	4.71% (inactive)	
CN(C)CCCNc1cc(C(C)(C)C)nc2c(-c3ccc(Cl)cc3)cnn12		14.1% (inactive)
COc1ccc(C(=O)On2c(-c3ccc(Br)cc3)nc3ccccc3c2=O)cc1	-5.26% (inactive)	
CC(C)N1CCN(c2ccc(OCC3COC(Cn4cncn4)(c4ccc(Cl)cc4Cl)O3)cc2)CC1 (stereo not drawn)	-56.9% (inactive)	
O=C(COc1ccccc1F)Nc1nc(-c2ccccn2)cs1	-57.2% (inactive)	
CCOc1cc([N+](=O)[O-])cc(/C=N/NC(=O)c2c(-c3ccccc3)noc2C)c1O	0.098% (inactive)	
CCCCCCCCCCOC(=O)Cn1c(COc2ccccc2OC)[n+](C)c2ccccc21	-82.3% (inactive)	
O=C(c1cc(COc2ccc(F)cc2Cl)on1)N1CCC(c2ccncc2)CC1	-20.9% (inactive)	
O=C(Nc1nc(-c2ccccn2)cs1)c1ccc(Br)s1	-44.2% (inactive)	
Oc1c(C(Nc2ccccn2)c2cccnc2)cc(Cl)c2cccnc12 (stereo not drawn)	-70.7% (inactive)	
O/N=C(\c1ccc(Cl)cc1Cl)c1ncc(C(F)(F)F)cc1Cl	-32.2% (inactive)	
CCOC(=O)c1cnc(-n2nc(C)cc2C)nc1NC1CCCC1	-62% (inactive)	
O=[N+]([O-])c1ccc(Sc2cccc[n+]2[O-])c2nonc12	-4.98% (inactive)	
CC1CC(C)(O)CC(C(O)CC2CC(=O)NC(=O)C2)C1=O (stereo not drawn)	2.36% (inactive)	
CCOC(=O)c1ccc(NC(=S)N(Cc2cccnc2)Cc2ccco2)cc1	-37.1% (inactive)	
O=C1Nc2c(Br)cccc2C1=O	-9.27% (inactive)	
Fc1ccccc1COc1ccc(Br)cc1CNCc1ccncc1	-7.59% (inactive)	
C(=C1c2ccccc2-c2ccccc21)c1ccncc1	-46.7% (inactive)	
